Measured values reported in a melting point compilation (Tetko et al.; mined from patent text by program, amines drawn as free bases though some values may be those of a salt).

Row | Compound | melting point [°C]
1 | C=CCNc1ccc(N(CCO)CCO)cc1[N+](=O)[O-] | 73 to 75
2 | Oc1ccccc1-c1nnn[nH]1 | 228
3 | CSc1nnc(C(O)(c2ccc(Cl)cc2)c2ccc3nc(C)cc(-c4cccc(Cl)c4)c3c2)n1C (stereo not drawn) | 142
4 | O=C(Nc1cc(C(=O)O)cc(C(=O)O)c1)Oc1ccccc1 | > 300
5 | O=C(CBr)C(O)(c1ccccc1)C1CCC1 (stereo not drawn) | 79 to 80
6 | Nc1nc2ccccc2c2c1ncn2CCOCC#Cc1nccs1 | 157 to 159
7 | Cc1c(OCC(F)(F)F)ccnc1CSc1nc2ccccc2n1N | 134 to 135
8 | CCCNC1Cc2cccc3[nH]c(=O)n(c23)C1 (stereo not drawn) | > 300
9 | Cc1cc2cc(CN3CCC(CC(=O)N4CCCCC4)CC3)cnc2cc1NC(=O)c1ccc(-c2ccc(F)cc2)cc1 | 216
10 | CS(=O)(=O)c1ccc(-c2c(-c3ccc(O)cc3)[nH]c3ccc(Cl)cc23)cc1 | 271 to 273
11 | CCC(C)C(C(=O)O)N1C(=O)C2C3C=CC(C3)C2C1=O (stereo not drawn) | 109
12 | CC(C)(C)OC(=O)NC(C(=O)NC1c2cc(C#N)ccc2OC(C)(C)C1O)c1ccccc1 (stereo not drawn) | 112 to 130
13 | CC(C)(C)c1cc(NC(=O)NNC(=O)c2ccc([N+](=O)[O-])cc2)cc(C(C)(C)C)c1O | 163 to 164
14 | OCCn1cc(C(CC2CCCCCC2)=NO)c2c(Cl)cccc21 | 120 to 123
15 | CCCCN(CCCC)C(=O)NCCc1ccc(-c2csc(N)n2)cc1 | 42 to 43
16 | COc1ccccc1-c1c(C#N)nn(-c2c(Cl)cc(C(F)(F)F)cc2Cl)c1N | 193
17 | O=C(C(Cl)=Cn1ccnc1)c1ccc(Cl)cc1Cl | 149 to 151
18 | Nc1cc(O)nc2c(-c3ccncc3)c(-c3ccc(F)cc3)nn12 | > 250
19 | NS(=O)(=O)c1cc2cc3c(cc2n1S(=O)(=O)c1ccccc1)OCO3 | 229 to 232
20 | COc1cc(C)c(C=CC(C)=CC=C(C)C(=O)O)cc1C | 222 to 224
21 | O=C1c2ccccc2C(=O)N1C1CCN(Cc2ccccc2)CC1 | 154 to 157
22 | CCC1C2C3Cc4ccc(OC)c5c4C2(CCN3C)C(O5)C(O)C1(C)C (stereo not drawn) | 104 to 108
23 | O=C(Nc1cnn2ccccc12)C1CC1 | 159 to 162
24 | COc1cn(-c2ccc(N(N)C(=O)OC(C)(C)C)cc2F)nc(-c2ccnn2-c2ccccc2)c1=O | 163 to 165
25 | O=C(Oc1ccc(CCN(F)F)cc1)c1ccccc1 | 67 to 67.5

Row | Compound | melting point [°C]
26 | COc1cc(CCl)c(OCCC(C)CCCC(C)C)cc1CCl (stereo not drawn) | 65
27 | CC(O)CN(CC(C)O)c1cc(C(C)(C)C)cc(C(C)(C)C)c1 (stereo not drawn) | 139
28 | Cc1ccc(S(=O)(=O)N2CC(CO)(CO)C2)cc1 | 148 to 150
29 | CN(C)n1c(Cl)n[nH]c1=O | 158
30 | CC(C)NC(=O)c1ccc(CCN2CC=C(c3c[nH]c(-c4ccc(F)cc4)c3-c3ccncc3)CC2)cc1 | 178 to 180
31 | O=C1CCC2=C1C(c1ccc(Cl)c(F)c1)C1=C(CCS1)N2 (stereo not drawn) | > 260
32 | CCCCCCCCC(=O)Nc1cc(C)c(O)c(C)c1 | 100 to 101
33 | CC1(COc2ccc(Cc3nnn[nH]3)cc2)CCCCC1O (stereo not drawn) | 103 to 108
34 | FC(F)(F)c1nnnn1-c1ccc(OCc2ccccc2)c(Br)c1 | 66 to 68
35 | Cc1ncc(C#N)c(Cl)c1I | 120 to 122
36 | COc1nc2cc(Cl)c(Cl)cc2nc1NS(=O)(=O)c1cccc(Cl)c1Cl | 283 to 285
37 | CCC1C(=O)c2cc(OCC(=O)O)c(C)c(C)c2C1=O (stereo not drawn) | 187 to 193
38 | CCCN(CCC)S(=O)(=O)c1cc(C2=CCC(=O)O2)ccc1Cl | 118 to 121
39 | CC(C(=O)NO)S(=O)Cc1ccc(Cl)cc1 (stereo not drawn) | 132 to 133
40 | O=C(O)C(C1CC(=O)N(C(=O)OCC(Cl)(Cl)Cl)O1)N1C(=O)c2ccccc2C1=O (stereo not drawn) | 208 to 210
41 | N#CNC(=S)Nc1ccc(C#N)cc1 | > 250
42 | CC(=O)OCC(=O)N(c1c(C)ccc2ccccc12)C1CCOC1=O (stereo not drawn) | 50 to 70
43 | COc1cc(CNC(=S)NC(COC(=O)C(C)(C)C)Cc2ccc(C(C)(C)C)cc2)ccc1OCCN (stereo not drawn) | 63 to 65
44 | O=C(O)Cc1nn(Cc2nc3cccc(Cl)c3s2)c(=O)c2ccccc12 | 168
45 | CNC(=NCCSCc1nc[nH]c1C)S(=O)(=O)O | 162 to 164
46 | CCOc1ccc(-c2nc(-c3cccc(C(N)=NO)n3)cs2)cc1OCC | 218 to 220
47 | CCN(CC)c1ccc2cc(N)c(=O)oc2c1 | 85 to 87
48 | CN(CCc1c[nH]c2ccc(CNS(C)(=O)=O)cc12)C(=O)OCc1ccccc1 | 118 to 120
49 | Cc1cccc2c(-c3ccc(F)cc3)nccc12 | 91 to 92

Further lines, results first:

Row | melting point [°C] | Compound
50 | 99 to 102 | CCCCCc1scc2c1n(C(=O)OC)c(=O)n2C(=O)OC
51 | 165 to 166 | CCOC(=O)c1c(CN2CCOCC2)nc2cc(OC)c(OC)cc2c1-c1ccc(OC)cc1
52 | 127 | CC(C)NC(=O)c1ccc(F)c2c1CC(N(CCCc1c[nH]c3ccc(F)cc13)C1CCC1)CO2 (stereo not drawn)
53 | 83 to 86 | C=Cc1ccc2ccccc2c1-c1ccc(O)c(OC)c1
54 | 142 to 143 | COCc1cc(O[C@@H]2c3ccccc3C[C@H]2O)c2nc(C)c(C)n2c1 (relative stereo)
55 | 76 | CN(C)CC1(CO)C(O)C(O)C(O)CN1C (stereo not drawn)
56 | 162 to 164 | CS(=O)(=O)Nc1ccc(C(=O)C2CCN(CCCOc3ccc([N+](=O)[O-])cc3)CC2)cc1
57 | 257 to 258 | CCOC(=O)c1c(-c2ccccc2Cl)c2cc(C)cc(C)c2[nH]c1=O
58 | 143 to 145 | CCOc1ccc(-c2[nH]c3ccc(OCc4ccccc4)cc3c2C)cc1
59 | 225 to 226 | Cc1cc(-c2ccc3c(=O)c(C(=O)O)cn(C4CC4)c3c2C)cnc1CO
60 | 122 to 124 | COc1ccc(COc2ccc([N+](=O)[O-])cc2)cc1
61 | 170 | CC(C)(C)OC(=O)Nc1cc(OCC#N)c(C#Cc2ccccc2)cc1[N+](=O)[O-]
62 | 72 to 75 | c1ccc(C2(c3ccccc3)CCNCCO2)cc1
63 | 148 to 149 | CC(Nc1ccc(Cl)c(Cl)c1)C(=O)O (stereo not drawn)
64 | 155 to 162 | CCCc1c(O)ccc2c(=O)cc(C(=O)OCC)oc12
65 | 165 to 168 | Cc1ccc(C(=O)Nc2ccccc2C(CCC(=O)O)=NO)cc1
66 | 185 to 187 | CC(=O)c1cn(Cc2ccc(F)cc2)c2ccccc2c1=O
67 | 117 | Cc1c(-c2ccccc2)oc2c(CNCCO)cccc2c1=O
68 | 210 to 212 | CC(=O)OC(CCC(C)(C)C)C(C)C1CCC2C3CC=C4CC(O)CCC4(C)C3CCC12C (stereo not drawn)
69 | 230 | CN1CCC(=C2c3ccsc3C(O)Cn3ccnc32)CC1 (stereo not drawn)
70 | 153 to 154 | CC(=O)NC1(C)CCCc2nc(OCc3ccccc3)ccc21 (stereo not drawn)
71 | 75 to 77 | CN1CCN(CCCNc2ncc3c(n2)-c2ccccc2C(c2ccc(N)cc2)C3)CC1 (stereo not drawn)
72 | 305 to 306 | O=C(O)COc1cc2c(c(Cl)c1Cl)C(=O)c1ccccc1-2
73 | 91 to 92 | CC(C)c1oc(C=Cc2ccccc2)nc1CO
74 | 116 | FC(F)(F)Oc1cccc(CN2CCC(Nc3nnc(C(F)(F)F)s3)CC2)c1
75 | 101 to 105 | COc1ccccc1CCn1nnnc1-c1ccc2c(c1)C=CC(C)(C)O2
76 | 117 to 120 | CC(=O)Nc1cccc(NC(=O)c2cccc(S(=O)(=O)N3CCCCCC3)c2)c1

Row | melting point [°C] | Compound
77 | 176 to 180 | NS(=O)(=O)c1cc2[nH]c(CCCCc3ccccc3)nc2cc1Cl
78 | 243 to 247 | CS(=O)(=O)Nn1c(=O)[nH]c2cc(C(F)(F)F)c(CCCO)cc2c1=O
79 | 182 to 184 | COCCOc1ccc(/C=C/C(=O)O)c(Oc2ncc(Cl)cc2Cl)c1
80 | 96 to 96.3 | CCCCCc1ccc(-c2ncc(C#N)c(Cl)n2)cc1
81 | 276 | Cc1ccc2c(c1)c(N1CCN(C(=O)c3ccco3)CC1)c(C#N)c(=O)n2Cc1ccc(F)cc1
82 | 78 to 81 | C=CCSc1cc(C(=O)O)cc(S(N)(=O)=O)c1-c1ccccc1
83 | 180 to 182 | COc1ccc(OC)c(C(=O)c2cccc(OC)c2C(=O)O)c1
84 | 163 to 165 | COC(=O)c1ccc(Cn2c(=O)c(C)c3sc(C(=O)NCc4ccc(OC)cc4)cn3c2=O)cc1
85 | 194 to 195 | COc1cc(OC)c(C2C=CCO2)cc1C=CC(=O)c1ccc(S(N)(=O)=O)cc1 (stereo not drawn)
86 | 148 | CCOc1ccc(C=C(CS)C(=O)NCCC(=O)O)cc1
87 | 285 | O=C(O)CCCNC(=O)c1nc(Cl)c(Cl)[nH]1
88 | 130 to 131 | CC(C)Cc1nc2ccc(Cl)cc2c(-c2ccccc2)c1CO
89 | 94.5 to 96 | Cc1nc(C)c(C(C)(O)c2ccccc2)o1 (stereo not drawn)
90 | 256 to 260 | Cn1c([N+](=O)[O-])cnc1-c1nc2ccccc2c(=O)[nH]1
91 | 193 to 195 | COc1cccc(Nc2nc(-n3nc(C)cc3C)nc3ccccc23)c1
92 | 67 | COc1cc(Br)cc2c1OCCC2
93 | 84 | CCCCCCCCOc1ccc(-c2ccc(C3CCC(CCC)C3)cc2)cc1 (stereo not drawn)
94 | 201 | Cc1ccc(S(=O)(=O)N(CCO)c2cc(C)cc([N+](=O)[O-])c2N)cc1
95 | 51 to 54 | Fc1cccc(Cc2cncnc2N2CCCC2)c1
96 | 123 | CC(=O)Nc1cc(C)cc(N)c1
97 | 109 to 111 | O=C1Cc2c(Cl)cccc2Sc2cc(F)ccc21
98 | 100 to 101 | O=C(Cl)c1ccc(-c2nc(C(Cl)(Cl)Cl)nc(C(Cl)(Cl)Cl)n2)cc1
99 | 159 to 162 | CC(C)C[C@H](NC(=O)[C@H](Cc1c[nH]cn1)NC(=O)[C@H](Cc1ccccc1)NC(=O)OCc1ccccc1)[C@H](O)CO
100 | 108 to 110 | CCCCCCCCCCc1nnn(CC(=O)Nc2c(C(C)C)cccc2C(C)C)n1
101 | 165 to 167 | N#Cc1c(Cl)nc(OCC(F)(F)F)nc1N1CCc2ccccc2CC1
102 | 95 to 106 | CC(=O)N1CCCc2cc(CO)ccc21
103 | 129 to 131 | CCOCCCN(C)Cc1ccc(NC(=O)C2=Cc3cc(-c4ccc(OCC)cc4)ccc3N(C)CC2)cc1
